Laboratory results: the NIST ThermoML archive (doi:10.1021/je700096m)

Assay: xn = mol fraction of the nth substance listed
Details: 298.15 K, Liquid

CCCCCCCl [1-chlorohexane] + CN(C)C=O
mass density [kg/m3]
Details | x2 = 0.097 | x2 = 0.2019 | x2 = 0.2707 | x2 = 0.4007 | x2 = 0.5017 | x2 = 0.6155 | x2 = 0.6988 | x2 = 0.7993 | x2 = 0.9018
100 kPa | 876.9 | 881.2 | 884.4 | 891.3 | 897.4 | 905.4 | 912.7 | 921.8 | 932.6
2000 kPa | 878.5 | 882.8 | 885.9 | 892.8 | 898.8 | 906.9 | 914 | 923.1 | 933.8
4000 kPa | 880.2 | 884.4 | 887.5 | 894.3 | 900.3 | 908.4 | 915.5 | 924.4 | 935.1
6000 kPa | 881.8 | 886 | 889.1 | 895.8 | 901.8 | 909.8 | 916.8 | 925.7 | 936.4
8000 kPa | 883.4 | 887.6 | 890.7 | 897.3 | 903.3 | 911.2 | 918.2 | 927 | 937.6
10000 kPa | 885.1 | 889.3 | 892.3 | 898.8 | 904.8 | 912.7 | 919.6 | 928.4 | 938.9
11900 kPa | – | – | – | – | – | 914 | – | – | –
12000 kPa | 886.7 | 890.8 | 893.8 | 900 | 906.3 | – | 920.9 | 929.7 | 940.1
13900 kPa | – | – | – | – | – | – | – | 930.9 | –
14000 kPa | 888.2 | 892.3 | 895.2 | 901.8 | 907.6 | 915.4 | 922.3 | – | 941.3
16000 kPa | 889.7 | 893.8 | 896.7 | 903.2 | 909.1 | 916.8 | 923 | 932.1 | 942.5
17900 kPa | – | – | – | – | – | – | – | 933.3 | –
18000 kPa | 891.2 | 895.3 | 898.1 | 904.6 | 910.4 | 918.1 | 924.9 | – | 943.6
20000 kPa | 892.8 | 896.6 | 899.6 | 906 | 911.8 | 919.5 | 926.2 | 934.6 | 944.9

CCCCCl [1-chlorobutane] + CC(=O)N(C)C
mass density [kg/m3]
Details | x2 = 0.0967 | x2 = 0.2105 | x2 = 0.2984 | x2 = 0.4019 | x2 = 0.499 | x2 = 0.5947 | x2 = 0.6992 | x2 = 0.7997 | x2 = 0.9015
100 kPa | 885.6 | 891.8 | 896.7 | 902.5 | 908.1 | 913.3 | 919.2 | 924.7 | 930.4
2000 kPa | 887.5 | 893.6 | 898.4 | 904.1 | 909.6 | 914.8 | 920.6 | 925.9 | 931.6
4000 kPa | 889.5 | 895.5 | 900.1 | 905.8 | 911.2 | 916.2 | 922.1 | 927.3 | 932.9
6000 kPa | 891.4 | 897.2 | 901.9 | 907.45 | 912.7 | 917.8 | 923.4 | 928.7 | 934.1
8000 kPa | 893.3 | 899.1 | 903.6 | 909 | 914.2 | 919.2 | 924.8 | 930 | 935.5
10000 kPa | 895.3 | 900.9 | 905.3 | 910.9 | 915.8 | 920.7 | 926.2 | 931.3 | 936.7
11900 kPa | – | – | – | 912.3 | – | – | – | – | –
12000 kPa | 897.1 | 902.6 | 907 | – | 917.3 | 922.1 | 927.6 | 932.6 | 937.9
13900 kPa | – | – | – | 913.9 | – | – | – | – | –
14000 kPa | 898.9 | 904.4 | 908.6 | – | 918.8 | 923.5 | 929 | 933.8 | 939
15900 kPa | – | – | – | – | – | – | – | 935.1 | –
16000 kPa | 900.6 | 906.1 | 910.2 | 915.4 | 920.2 | 924.8 | 930.3 | – | 940.3
17900 kPa | 902.3 | 907.6 | – | – | – | – | – | 936.2 | –
18000 kPa | – | – | 911.7 | 916.9 | 921.6 | 926.2 | 931.5 | – | 941.5
20000 kPa | 904.2 | 909.3 | – | – | – | – | 932.9 | 937.7 | 942.6
20100 kPa | – | – | 913.5 | 918.5 | 923.1 | 927.6 | – | – | –

CCCCCCCCCl [1-chlorooctane] + CN(C)C=O
mass density [kg/m3]
Details | x2 = 0.1042 | x2 = 0.2009 | x2 = 0.2669 | x2 = 0.4023 | x2 = 0.4992 | x2 = 0.6035 | x2 = 0.6982 | x2 = 0.8002 | x2 = 0.9001
100 kPa | 871.7 | 875.3 | 877.9 | 884.2 | 889.7 | 896.8 | 904.7 | 914.9 | 927.7
2000 kPa | 873.1 | 876.7 | 879.4 | 885.6 | 891 | 898.2 | 906 | 916.1 | 928.8
4000 kPa | 874.7 | 878.2 | 880.8 | 887.1 | 892.5 | 899.6 | 907.5 | 917.4 | 930.2
6000 kPa | 876.1 | 879.7 | 882.3 | 888.5 | 893.9 | 900.9 | 908.8 | 918.8 | 931.4
7900 kPa | 877.6 | – | – | – | – | – | – | – | –
8000 kPa | – | 881.1 | 883.7 | 889.9 | 895.3 | 902.3 | 910.1 | 920.1 | 932.6
9900 kPa | – | – | – | – | – | – | – | 921.4 | –
10000 kPa | 879.1 | 882.7 | 885.2 | 891.4 | 896.8 | 903.7 | 911.4 | – | 933.9
12000 kPa | 880.6 | 884.1 | 886.6 | 892.8 | 898.1 | 905 | 912.7 | 922.7 | 935.1
13900 kPa | – | 885.4 | – | – | – | – | – | – | –
14000 kPa | 882 | – | 887.9 | 894.1 | 899.4 | 906.3 | 914 | 924 | 936.3
15900 kPa | 883.2 | – | 889.2 | – | 900.7 | – | – | – | –
16000 kPa | – | 886.4 | – | 895.4 | – | 907.7 | 915.4 | 925 | 937.6
17900 kPa | – | – | – | 896.7 | – | – | – | – | 938.6
18000 kPa | 884.6 | 888.2 | 890.6 | – | 902 | 908.9 | 916.5 | 926.3 | –
20000 kPa | 886 | – | 891.8 | 898 | 903.3 | 910.3 | 917.7 | 927.5 | 939.8
20100 kPa | – | 889.6 | – | – | – | – | – | – | –
